Patent publication US5252322A, “Skin tanning compositions containing imidazoles” (The Gillette Company, priority 1992, dated 1993)
One block for each compound: values may come before it.

What was measured:
tyrosinase [1] = assay: Tyrosinase activity screening in S91 melanoma cell line; type: cell-based
Method: (§1) A screening test is employed to select compounds in vitro before in vivo testing. The better compounds are found to stimulate higher levels of tyrosinase activity in cell cultures. Often the increase in tyrosinase activity is accompanied by a small decrease in cell number.
(§2) To obtain more rapid results, the tests can be run with a melanoma cell line such as Cloudman S91 melanoma cells. However, if desired, normal human melanocytes (NHM) can also be employed. The compounds to be tested are added as aqueous solutions to the cell culture medium. After four days, the cells are harvested and counted, and a tyrosinase activity assay and a total protein determination are run on cell pellets.

[2] = tested on: pigmented guinea pig skin; assay: In vivo tanning test on pigmented guinea pig skin
Method: To confirm the results of in vitro testing, in vivo testing was conducted on pigmented guinea pig skin. Five animals were used in each of the treatment or control groups.
1. Animals were clipped in a suitably pigmented area over the back or flank and chemically depilated prior to the first treatments. The area was at least 4 cm^2. The treatment site was 3 cm^2 and was carefully marked. Photographs of areas to be treated were taken prior to initial treatments. Animals were clipped as needed throughout the study, depilation was only done prior to evaluations.
2. Concentrations of imidazole of 0.1, 0.5, 1.0 and 2.0M were applied as a liquid in 50% EtOH. 100 μL volumes were applied via pipette and glass rod with minimal rubbing of the skin.
3. Treatments were made daily, 5 days per week for 3 weeks. Visual observations and photographic records were made at the study midpoint and 24 hours after the last treatment. Animals were clipped and depilated prior to these evaluations.
4. The animals were monitored for two weeks following the last treatment. At the end of the fifth week, animals were photographed.

tyrosinase [3] = assay: Tyrosinase activity assay of cell cultures stimulated with imidazole (cell line not stated); type: cell-based; settings: four days, control (0 mM) 111.9
Method: as §1, §2
Dose-response curves from tyrosinase assays of cells stimulated with imidazole have slopes of about 1.1.

tyrosinase [4] = assay: Tyrosinase activity screening in normal human melanocytes (NHM); type: cell-based; settings: NHM, 0.5, 10 and 50 mM
Method: as §1, §2

SMILES: O=C(O)Cc1c[nH]cn1 [4-imidazoleacetic acid]
tyrosinase activity versus control (tyrosinase [1]; 0.5 and 10 mM, may be due to acidic pH of test solutions): dose dependent decrease

SMILES: c1c[nH]cn1 [imidazole]
visual observation of treated sites (darkening) ([2]; 0.1, 0.5, 1.0 and 2.0M in 50% EtOH, topical 100 μL daily, 5 days per week for 3 weeks): darkening for all areas
skin irritation ([2]; 2.0M solution in 50% EtOH, topical): appeared to mildly irritate the skin of some of the animals
visual observation of treated sites (degree of tanning) ([2]; at 0.5 to 1.0M in 50% EtOH, topical, 3 weeks): most tanning
course of darkening over time ([2]; daily topical treatments for 3 weeks): continued to increase through the third week
number of treatments after which darkening was observed ([2]; daily topical treatments, 5 days per week): 5-10 treatments
tyrosinase activity, DPM/1000 cells (tyrosinase [3]; 0.5 mM): 210.7 DPM/1000 cells
tyrosinase activity, DPM/1000 cells (tyrosinase [3]; 1.0 mM): 263.2 DPM/1000 cells
tyrosinase activity, DPM/1000 cells (tyrosinase [3]; 5.0 mM): 329.2 DPM/1000 cells
tyrosinase activity, DPM/1000 cells (tyrosinase [3]; 10.0 mM): 516.1 DPM/1000 cells

SMILES: O=Cc1ncc[nH]1 [2-imidazolecarboxaldehyde]
tyrosinase activity versus control (tyrosinase [1]; at 0.5 mM (tested 0.1, 0.25, 0.5 mM)): elevated
tyrosinase activity versus control (tyrosinase [1]; at 0.1 and 0.25 mM): decreased activity

SMILES: OCc1c[nH]cn1 [4-(hydroxymethyl)imidazole]
tyrosinase activity versus control (tyrosinase [1]; at 0.25 and 0.5 mM (tested 0.1, 0.25, 0.5 mM)): slightly increased

SMILES: N[C@@H](Cc1c[nH]cn1)C(=O)O [L-histidine monochloride monohydrate]
tyrosinase activity versus control (tyrosinase [1]; at 0.5 mM (tested 0.5 and 10 mM)): increased tyrosinase activity

tyrosinase activity versus control (tyrosinase [4]): moderate inhibition
SMILES: O=C1NCCN1 [2-imidazolidone]
tyrosinase activity versus control (tyrosinase [1]; at 50 mM (tested 0.5, 10, 50 mM)): slight increase
